Molecular target: T1, recombinant mouse NPY5-receptor (mNPY5) (Mus musculus, UniProt O70342)
T1 construct: The full-length cDNA encoding the mouse NPY5 (mNPY5) receptor was amplified from mouse brain cDNA; expressed in transfected cells; membranes used
T1 sequence (O70342 1-466): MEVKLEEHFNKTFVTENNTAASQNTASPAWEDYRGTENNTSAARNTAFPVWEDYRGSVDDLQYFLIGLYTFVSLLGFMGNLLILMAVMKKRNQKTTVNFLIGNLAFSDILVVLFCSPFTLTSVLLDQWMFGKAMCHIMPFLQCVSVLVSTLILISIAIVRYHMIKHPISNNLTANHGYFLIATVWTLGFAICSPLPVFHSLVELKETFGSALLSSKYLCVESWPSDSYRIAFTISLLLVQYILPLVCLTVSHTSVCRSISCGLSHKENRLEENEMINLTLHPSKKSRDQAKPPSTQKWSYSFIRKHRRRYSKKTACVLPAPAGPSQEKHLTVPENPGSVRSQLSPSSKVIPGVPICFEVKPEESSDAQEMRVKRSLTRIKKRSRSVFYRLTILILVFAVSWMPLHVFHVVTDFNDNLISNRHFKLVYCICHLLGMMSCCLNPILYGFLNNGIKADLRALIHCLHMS
Test: Radioligand competition binding
Conditions: membranes of HEK293 cells expressing mNPY5; 100 pM [125I]labeled peptide YY; 1 h at 22° C.; read-out: NPY5-R (mouse) IC50
From the text: The full-length cDNA encoding the mouse NPY5 (mNPY5) receptor was amplified from mouse brain cDNA using specific primers, designed based on the published sequence, and Pfu DNA-Polymerase. The amplification product was subcloned into the mammalian expression vector pcDNA3 using Eco RI and XhoI restriction sites. Positive clones were sequenced and one clone, encoding the published sequence was selected for generation of stable cell clones.
Human embryonic kidney 293 (HEK293) cells were transfected with 10 μg mNPY5 DNA using the lipofectamine reagent. Two days after transfection, geneticin selection (1 mg/ml) was initiated and several stable clones were isolated. One clone was further used for pharmacological characterization.
Human embryonic kidney 293 cells (HEK293), expressing recombinant mouse NPY5-receptor (mNPY5) were broken by three freeze/thawing cycles in hypotonic Tris buffer (5 mM, pH 7.4, 1 mM MgCl2), homogenized and centrifuged at 72,000×g for 15 min. The pellet was washed twice with 75 mM Tris buffer, pH 7.4, containing 25 mM MgCl2 and 250 mM sucrose, 0.1 mM phenylmethylsulfonylfluoride and 0.1 mM 1,10-pheneanthrolin, resuspended in the same buffer and stored in aliquots at −80° C. Protein was determined according to the method of Lowry using bovine serum albumine (BSA) as a standard. […]

Cc1nc(N2CCCC2)c2ccc(OCc3ccc(C#N)cc3)cc2n1 [Compound 3, 4-(2-methyl-4-pyrrolidin-1-yl-quinazolin-7-yloxymethyl)-benzonitrile]
IC50: 9 nM

Cc1nc(N2CCCC2)c2ccc(NCC(C)C)cc2n1 [Compound 24, isobutyl-(2-methyl-4-pyrrolidin-1-yl-quinazolin-7-yl)-amine]
IC50: 3 nM
